Experimental data published in the supplement of paper PMC11061612.

Key:
Assay in all cases: Bliss excess, mean over the matrix (fraction); higher = more synergy
[1] = test system: CAL-85-1 (Breast Carcinoma)
Summary of the method: (§1)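 Bliss excess equals the observed combination effect minus the expected value EA + EB − EA·EB, where EA and EB are the effects of each agent alone. Combination Emax is the second-highest inhibition within the matrix. Inhibition was scaled from CellTiter-Glo 2.0 luminescence, with 0 set by vehicle wells and 1 by blank wells, after 72 hours of two-drug dosing of cells plated in 1536-well plates.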

[2] = test system: MDA-MB-175-VII (Breast Carcinoma)
Summary of the method: as §1

[3] = test system: NCI-H1648 (Lung Adenocarcinoma)
Summary of the method: as §1

[4] = test system: NCI-H2009 (Lung Adenocarcinoma)
Summary of the method: as §1

[5] = test system: NCI-H2452 (Mesothelioma)
Summary of the method: as §1

[6] = test system: OVKATE (Ovarian Carcinoma)
Summary of the method: as §1

[7] = test system: RPMI-8402 (T-Lymphoblastic Leukemia)
Summary of the method: as §1

[8] = test system: SBC-3 (Small Cell Lung Carcinoma)
Summary of the method: as §1

[9] = test system: SK-MEL-24 (Melanoma)
Summary of the method: as §1

## Cc1nc(-c2cn3c(n2)-c2ccc(-c4cnn(C(C)(C)C(N)=O)c4)cc2OCC3)n(C(C)C)n1 [Taselisib] + O=C(Nc1ccc2[nH]nc(-c3ccncc3)c2c1)[C@@H]1CCN(CC(=O)N2CCN(c3ccc(-c4ncccn4)cc3)CC2)C1 [SCH772984] (first compound max 10 µM, 7x7, partner max 5 µM)
[1]
  Bliss excess: 0.0682
[2]
  Bliss excess: 0.138
[3]
  Bliss excess: 0.115
[4]
  Bliss excess: 0.0964
[5]
  Bliss excess: -0.0276
[6]
  Bliss excess: 0.0487
[7]
  Bliss excess: 0.0802
[8]
  Bliss excess: 0.11
[9]
  Bliss excess: 0.0017

## CN(CCO)CC[C@H](CSc1ccccc1)Nc1ccc(S(=O)(=O)NC(=O)c2ccc(N3CCC([C@@H](O)c4ccccc4-c4ccc(Cl)cc4)CC3)cc2)cc1S(=O)(=O)C(F)(F)F [AZD4320] + CS(=O)(=O)CCNCc1ccc(-c2ccc3ncnc(Nc4ccc(OCc5cccc(F)c5)c(Cl)c4)c3c2)o1 [Lapatinib] (first compound max 1 µM, 7x7, partner max 10 µM)
[1]
  Bliss excess: 0.0241
[2]
  Bliss excess: 0.0728
[3]
  Bliss excess: -0.0316
[4]
  Bliss excess: -0.0017
[5]
  Bliss excess: -0.019
[6]
  Bliss excess: -0.0082
[7]
  Bliss excess: 0.0949
[8]
  Bliss excess: 0.052
[9]
  Bliss excess: 0.0316

## CS(=O)(=O)CCNCc1ccc(-c2ccc3ncnc(Nc4ccc(OCc5cccc(F)c5)c(Cl)c4)c3c2)o1 [Lapatinib] + Cn1cnc2c(F)c(Nc3ccc(Br)cc3Cl)c(C(=O)NOCCO)cc21 [Selumetinib] (first compound max 10 µM, 7x7, partner max 10 µM)
[1]
  Bliss excess: 0.0396
[2]
  Bliss excess: 0.0577
[3]
  Bliss excess: 0.116
[4]
  Bliss excess: -0.0531
[5]
  Bliss excess: -0.0363
[6]
  Bliss excess: -0.0514
[7]
  Bliss excess: -0.031
[8]
  Bliss excess: -0.0109
[9]
  Bliss excess: 0.0129

## Cc1c2c(nn1C)CSCc1cc(n(C)n1)CSc1cc(c3ccccc3c1)OCCCc1c(C(=O)O)n(C)c3c-2c(Cl)ccc13 [AZD5991] + CS(=O)(=O)CCNCc1ccc(-c2ccc3ncnc(Nc4ccc(OCc5cccc(F)c5)c(Cl)c4)c3c2)o1 [Lapatinib] (first compound max 1 µM, 7x7, partner max 10 µM)
[1]
  Bliss excess: -0.0213
[2]
  Bliss excess: 0.04
[3]
  Bliss excess: -0.023
[4]
  Bliss excess: -0.0136
[5]
  Bliss excess: -0.0576
[6]
  Bliss excess: -0.0552
[7]
  Bliss excess: 0.0115
[8]
  Bliss excess: -0.0235
[9]
  Bliss excess: -0.0651

## C=CCn1c(=O)c2cnc(Nc3ccc(N4CCN(C)CC4)cc3)nc2n1-c1cccc(C(C)(C)O)n1 [AZD1775] + CCc1c2c(nc3ccc(O)cc13)-c1cc3c(c(=O)n1C2)COC(=O)[C@]3(O)CC [SN-38] (first compound max 1 µM, partner max 0.3 µM)
[1]
  Bliss excess: -0.0337
[2]
  Bliss excess: -0.0068
[3]
  Bliss excess: -0.0217
[4]
  Bliss excess: 0.0769
[5]
  Bliss excess: -0.0145
[6]
  Bliss excess: -0.079
[7]
  Bliss excess: 0.0012
[8]
  Bliss excess: -0.0297
[9]
  Bliss excess: -0.103

## C[C@@H](Nc1cc(F)cc(F)c1)c1cc(C(=O)N(C)C)cc2c(=O)cc(N3CCOCC3)oc12 [AZD8186] + CC(=O)c1c(C)c2cnc(Nc3ccc(N4CCNCC4)cn3)nc2n(C2CCCC2)c1=O [Palbociclib] (first compound max 10 µM, 7x7, partner max 10 µM)
[1]
  Bliss excess: -0.0529
[2]
  Bliss excess: -0.0148
[3]
  Bliss excess: 0.0672
[4]
  Bliss excess: -0.0184
[5]
  Bliss excess: -0.0353
[6]
  Bliss excess: -0.0096
[7]
  Bliss excess: 0.0013
[8]
  Bliss excess: 0.0742
[9]
  Bliss excess: 0.0814

## C[C@@H](Nc1cc(F)cc(F)c1)c1cc(C(=O)N(C)C)cc2c(=O)cc(N3CCOCC3)oc12 [AZD8186] + C1CN(CCC1(C(=O)N[C@@H](CCO)C2=CC=C(C=C2)Cl)N)C3=NC=NC4=C3C=CN4 [AZD5363] (first compound max 10 µM, 7x7, partner max 10 µM)
[1]
  Bliss excess: -0.0285
[2]
  Bliss excess: -0.0108
[3]
  Bliss excess: -0.0377
[4]
  Bliss excess: -0.034
[5]
  Bliss excess: -0.0466
[6]
  Bliss excess: -0.0281
[7]
  Bliss excess: -0.0783
[8]
  Bliss excess: 0.0272
[9]
  Bliss excess: -0.0455

## O=C(c1cc(Cc2n[nH]c(=O)c3ccccc23)ccc1F)N1CCN(C(=O)C2CC2)CC1 [Olaparib] + Cc1c2c(nn1C)CSCc1cc(n(C)n1)CSc1cc(c3ccccc3c1)OCCCc1c(C(=O)O)n(C)c3c-2c(Cl)ccc13 [AZD5991] (first compound max 10 µM, 7x7, partner max 1 µM)
[1]
  Bliss excess: -0.0484
[2]
  Bliss excess: -0.0155
[3]
  Bliss excess: -0.0083
[4]
  Bliss excess: -0.0445
[5]
  Bliss excess: -0.0199
[6]
  Bliss excess: -0.0525
[7]
  Bliss excess: -0.0419
[8]
  Bliss excess: -0.0134
[9]
  Bliss excess: -0.0478

## Cc1c2c(nn1C)CSCc1cc(n(C)n1)CSc1cc(c3ccccc3c1)OCCCc1c(C(=O)O)n(C)c3c-2c(Cl)ccc13 [AZD5991] + Nc1ccn([C@@H]2O[C@H](CO)[C@@H](O)C2(F)F)c(=O)n1 [Gemcitabine] (first compound max 1 µM, 7x7, partner max 0.3 µM)
[1]
  Bliss excess: -0.027
[2]
  Bliss excess: 0.0148
[3]
  Bliss excess: -0.0061
[4]
  Bliss excess: -0.0361
[5]
  Bliss excess: -0.0642
[6]
  Bliss excess: -0.0373
[7]
  Bliss excess: 0.0264
[8]
  Bliss excess: 0.0059
[9]
  Bliss excess: -0.0245
